Like-named read-outs stand apart in the source and are kept apart here.
Key:
effects of serotonin [1] = conditions: rats, compound 48/80; known serotonin-antagonists; cited from earlier work
[2] = test system: compound 48/80-induced lethality; experiment: Protection of rats from compound 48/80-induced lethality; type: in vivo, rats of an inbred Wistar strain; conditions: Rattus norvegicus, 4 h, read-out: Compound 48/80 lethality test in rats ED50, s.c. or p.o. 1 h before compound 48/80 0.5 mg/kg i.v.; protection of 50% of animals, survival after 4 hours
In short: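 Male inbred Wistar rats (240-260 g), starved overnight, dosed subcutaneously or orally with compound or 0.9% NaCl before compound 48/80 challenge. Survival at 4 hours counted as protection. ED50 in mg/kg is the dose protecting 50% of animals from lethality.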

effects of serotonin [3] = experiment: Antagonistic activity on the effects of serotonin in the gastric lesion test (lesions induced by compound 48/80); type: in vivo, rats of a Wistar inbred strain; conditions: for ED50: Rattus norvegicus, po, read-out: gastric lesion test ED50
In short: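 Fasted male Wistar rats (220–250 g) dosed orally with compound; 1 h later 2.5 mg/kg s.c. H1 antagonist, then compound 48/80 i.v. Stomachs examined 4 h afterwards for distension and glandular lesions (scored 0 to +++); ED50 is the oral dose (mg/kg) abolishing both in 50% of rats.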

[4] = compound 48/80 1 mg/kg i.v., distension and lesions of stomach completely absent in 50% of rats

Compound: CN1C[C@H](CNC(=O)OCc2ccccc2)C[C@@H]2c3cccc4c3c(cn4C)C[C@H]21 [metergoline]
- prevention of cyanosis of ears and extremities, lesions in the glandular area of the stomach and abnormal gastric distension (effects of serotonin [1]): prevent completely

Compound: CN1CCC(=C2c3ccccc3C=Cc3ccccc32)CC1 [cyproheptadine]
- prevention of cyanosis of ears and extremities, lesions in the glandular area of the stomach and abnormal gastric distension (effects of serotonin [1]): prevent completely

Compound: CC[C@@H](CO)NC(=O)[C@@H]1C=C2c3cccc4c3c(cn4C)C[C@H]2N(C)C1 [methysergide]
- prevention of cyanosis of ears and extremities, lesions in the glandular area of the stomach and abnormal gastric distension (effects of serotonin [1]): prevent completely

Compound: CN(C)CCCSc1ccccc1NC(=O)/C=C/c1ccccc1 [cinanserin]
- prevention of cyanosis of ears and extremities, lesions in the glandular area of the stomach and abnormal gastric distension (effects of serotonin [1]): prevent completely

Compound: CN1CCC(=C2c3ccccc3CCc3sccc32)CC1 [pizotifen]
- prevention of cyanosis of ears and extremities, lesions in the glandular area of the stomach and abnormal gastric distension (effects of serotonin [1]): prevent completely

Compound: CN1CCN2c3ccccc3Cc3ccccc3C2C1 (centres unmarked) [mianserin]
- prevention of cyanosis of ears and extremities, lesions in the glandular area of the stomach and abnormal gastric distension (effects of serotonin [1]): prevent completely

Compound: Cc1nc2n(c(=O)c1CCN1CCC(Cc3nc4ccccc4n3Cc3ccc(F)cc3)CC1)CCCC2 [Compound 498, 3-[2-[4-[[1-[(4-fluorophenyl)methyl]-1H-benzimidazol-2-yl]methyl]-1-piperidinyl]ethyl]-6,7,8,9-tetrahydro-2-methyl-4H-pyrido[1,2-a]pyrimidin-4-one]
- ED50 [2]: 0.08 mg/kg
- ED50 (effects of serotonin [3]; [4]): 0.16 mg/kg

Compound: c1csc(Cn2c(CC3CCN(CCNc4nccs4)CC3)nc3ccccc32)c1 [Compound 356]
- ED50 [2]: 0.02 mg/kg
- ED50 (effects of serotonin [3]): 0.08 mg/kg

Compound: COc1ccc(CCN2CCC(Cc3nc4cccnc4n3Cc3cccs3)CC2)cc1 [Compound 238]
- ED50 [2]: 0.08 mg/kg
- ED50 (effects of serotonin [3]; [4]): 0.63 mg/kg

Compound: COc1ccc(CCN2CCC(Cc3nc4ccccc4n3Cc3ccco3)CC2)cc1 [Compound 229]
- ED50 [2]: 0.04 mg/kg
- ED50 (effects of serotonin [3]; [4]): 0.63 mg/kg

Compound: O=c1[nH]c2ccccc2c(=O)n1CCN1CCC(Cc2nc3ccccc3n2Cc2ccc(F)cc2)CC1 [Compound 209]
- ED50 [2]: 0.08 mg/kg
- ED50 (effects of serotonin [3]; [4]): 0.63 mg/kg

Compound: c1csc(Cn2c(CC3CCN(CCNc4nc5cnccc5[nH]4)CC3)nc3ccccc32)c1 [Compound 416, N-[2-[4-[[1-(2-thienylmethyl)-1H-benzimidazol-2-yl]methyl]-1-piperidinyl]ethyl]-1H-imidazo[4,5-c]pyridin-2-amine]
- ED50 [2]: 0.04 mg/kg
- ED50 (effects of serotonin [3]): 0.04 mg/kg

Compound: Fc1ccc(Cn2c(CC3CCN(CCNc4nccs4)CC3)nc3cccnc32)cc1 [Compound 357]
- ED50 [2]: 0.02 mg/kg
- ED50 (effects of serotonin [3]; [4]): 0.63 mg/kg

Compound: NC(=O)C1(N2CCCCC2)CCN(CCCC(=O)c2ccc(F)cc2)CC1 [pipamperone]
- prevention of cyanosis of ears and extremities, lesions in the glandular area of the stomach and abnormal gastric distension (effects of serotonin [1]): prevent completely

Compound: O=c1[nH]c2ccccc2c(=O)n1CCN1CCC(Cc2nc3ccccc3n2Cc2ccco2)CC1 [Compound 208]
- ED50 [2]: 0.04 mg/kg
- ED50 (effects of serotonin [3]): 0.08 mg/kg

Compound: CCCC(=O)c1ccc(OC)c(C(=O)NCCN2CCC(Cc3nc4ccccc4n3Cc3ccc(F)cc3)CC2)c1 [Compound 441, N-[2-[4-[[1-[(4-fluorophenyl)methyl]-1H-benzimidazol-2-yl]methyl]-1-piperidinyl]ethyl]-2-methoxy-5-(1-oxobutyl)benzamide]
- ED50 [2]: 0.08 mg/kg
- ED50 (effects of serotonin [3]; [4]): 0.16 mg/kg

Compound: O=C(CCCN1CCC(Cc2nc3cccnc3n2Cc2ccc(F)cc2)CC1)c1ccc(F)cc1 [Compound 127]
- ED50 [2]: 0.08 mg/kg
- gastric lesion test ED50 (effects of serotonin [3]; oral, compound 48/80 1 mg/kg i.v., distension and lesions of stomach completely absent in 50% of rats, 1 mg/kg): 0.63 mg/kg body weight

Compound: O=c1[nH]c2ccccc2c(=O)n1CCN1CCC(Cc2nc3cccnc3n2Cc2ccc(F)cc2)CC1 [Compound 224]
- ED50 [2]: 0.04 mg/kg
- ED50 (effects of serotonin [3]): 0.08 mg/kg

Compound: O=C(CCCN1CCC2(CC1)C(=O)NCN2c1ccccc1)c1ccc(F)cc1 [spiperone]
- prevention of cyanosis of ears and extremities, lesions in the glandular area of the stomach and abnormal gastric distension (effects of serotonin [1]): prevent completely

Compound: Cn1c(O)nc2c(NCCN3CCC(Cc4nc5ccccc5n4Cc4ccc(F)cc4)CC3)ncnc21 [Compound 371]
- ED50 [2]: 0.16 mg/kg
- ED50 (effects of serotonin [3]; [4]): 0.63 mg/kg

Compound: CN(C)C(=O)NCCN1CCC(Cc2nc3cccnc3n2Cc2ccc(F)cc2)CC1 [Compound 448, N'-[2-[4-[[3-[(4-fluorophenyl)methyl]-3H-imidazo[4,5-b]pyridin-2-yl]methyl]-1-piperidinyl]ethyl]-N,N-dimethylurea]
- ED50 [2]: 0.08 mg/kg
- ED50 (effects of serotonin [3]; [4]): 0.16 mg/kg

Compound: Cc1cc(Cl)nc(NCCN2CCC(Cc3nc4ccccc4n3Cc3ccc(F)cc3)CC2)n1 [Compound 382, 4-chloro-N-[2-[4-[[1-[(4-fluorophenyl)methyl]-1H-benzimidazol-2-yl]methyl]-1-piperidinyl]ethyl]-6-methyl-2-pyrimidinamine]
- ED50 [2]: 0.08 mg/kg
- ED50 (effects of serotonin [3]; [4]): 0.63 mg/kg

Compound: Cn1cccc1C(=O)NCCN1CCC(Cc2nc3ccccc3n2Cc2ccc(F)cc2)CC1 [Compound 433, N-[2-[4-[[1-[(4-fluorophenyl)methyl]-1H-benzimidazol-2-yl]methyl]-1-piperidinyl]ethyl]-1-methyl-1H-pyrrole-2-carboxamide]
- ED50 [2]: 0.01 mg/kg
- ED50 (effects of serotonin [3]; [4]): 0.16 mg/kg
